US8987249B2, “Substituted 2-Aza-bicyclo[2.2.1]heptane-3-carboxylic acid (benzyl-cyano-methyl)-amides inhibitors of Cathepsin C” (Boehringer Ingelheim International GmbH, priority 2013, dated 2015)

Tests used:
[1] = Determination of metabolic stability with human liver microsomes; details: pooled human liver microsomes; for half-life at 1 μM: human, pH 7.6; for In vitro stability in human liver microsome incubations t½: 1 μM test compound, 37° C., NADPH
[2] = biological target: recombinant human Cathepsin K (Homo sapiens (Human), UniProt P43235); assay: Inhibition of human Cathepsin K; format: biochemical; details: substrate Z-Gly-Pro-Arg-AMC
recombinant human Cathepsin K, sequence (P43235 115-329): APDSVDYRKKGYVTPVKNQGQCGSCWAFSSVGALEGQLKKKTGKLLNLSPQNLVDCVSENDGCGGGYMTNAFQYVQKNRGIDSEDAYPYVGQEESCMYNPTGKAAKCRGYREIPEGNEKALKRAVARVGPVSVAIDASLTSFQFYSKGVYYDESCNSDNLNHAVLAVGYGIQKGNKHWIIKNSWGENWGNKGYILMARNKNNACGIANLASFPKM
How it was run: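 Fluorogenic Z-Gly-Pro-Arg-AMC cleavage, 60 min at room temperature, after a 10 min enzyme–compound preincubation (enzyme 2 ng/μL; compound 0.1 nM–100 μM; 1% DMSO). Buffer pH 5.5 with sodium acetate, EDTA and L-cysteine; procathepsin first activated 30 min at pH 3.5. E64 (1 μM) stop; IC50 derived from percent of vehicle signal minus background (Ex 360/Em 460 nm).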

[3] = biological target: recombinant human DPPI (Cathepsin C) (Homo sapiens (Human), UniProt P53634); assay: Inhibition of human DPPI (Cathepsin C); format: biochemical; details: substrate Gly-Arg-AMC
recombinant human DPPI (Cathepsin C), sequence (P53634 231-394): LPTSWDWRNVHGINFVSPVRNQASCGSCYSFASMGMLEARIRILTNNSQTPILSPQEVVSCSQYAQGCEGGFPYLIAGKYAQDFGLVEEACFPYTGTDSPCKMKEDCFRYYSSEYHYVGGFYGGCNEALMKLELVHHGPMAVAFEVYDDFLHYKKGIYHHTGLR
recombinant human DPPI (Cathepsin C), sequence (P53634 395-463): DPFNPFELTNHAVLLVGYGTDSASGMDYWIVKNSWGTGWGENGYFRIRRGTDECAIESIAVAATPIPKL
recombinant human DPPI (Cathepsin C), sequence (P53634 25-134): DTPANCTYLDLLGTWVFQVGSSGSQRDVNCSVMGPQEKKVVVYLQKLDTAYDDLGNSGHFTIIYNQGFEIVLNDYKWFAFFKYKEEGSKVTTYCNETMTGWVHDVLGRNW
How it was run: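 Fluorescence read after 30 min room-temperature turnover of 50 μM (final) substrate by recombinant human cathepsin C, pH 6.0 MES/NaCl/DTT/BSA buffer, quenched by Gly-Phe-DMK (1 μM final). Activity as percent of vehicle after background subtraction, used for IC50.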

| half-life at 1 μM [1] | IC50 [2] | IC50 [3] | In vitro stability in human liver microsome incubations t½ [1] | Structure (SMILES) |
| --- | --- | --- | --- | --- |
| > 2.17 h | 3 µM | 0.0022 µM |  | CN1CCN(C(=O)c2cc(-c3ccc(C[C@@H](C#N)NC(=O)[C@H]4N[C@@H]5CC[C@H]4C5)c(F)c3)cs2)CC1=O [Example 233] |
| > 2.17 h | 3 µM | 0.0047 µM |  | N#C[C@H](Cc1ccc(-c2csc(C(=O)NC3CCOCC3)c2)cc1F)NC(=O)[C@H]1N[C@@H]2CC[C@H]1C2 [Example 235] |
| > 2.17 h | 1.7 µM | 0.0016 µM |  | N#C[C@H](Cc1ccc(-c2ccc(C(N)=O)s2)cc1F)NC(=O)[C@H]1N[C@@H]2CC[C@H]1C2 [Example 236] |
| 1.83 h | 9.3 µM | 0.0143 µM |  | N#C[C@H](Cc1ccc(-c2ccc(C(=O)N3CCN4CCOCC4C3)o2)cc1F)NC(=O)[C@H]1N[C@@H]2CC[C@H]1C2 (stereo partly drawn) [Example 238] |
| > 2.17 h | 2 µM | 0.0034 µM |  | N#C[C@H](Cc1ccc(-c2cc(C(N)=O)co2)cc1F)NC(=O)[C@H]1N[C@@H]2CC[C@H]1C2 [Example 239] |
| 1.4 h | 2.5 µM | 0.0068 µM |  | CN1CCN(C(=O)c2coc(-c3ccc(C[C@@H](C#N)NC(=O)[C@H]4N[C@@H]5CC[C@H]4C5)c(F)c3)c2)CC1 [Example 241] |
| > 2.17 h | 2.5 µM | 0.0109 µM |  | CCNC(=O)c1coc(-c2ccc(C[C@@H](C#N)NC(=O)[C@H]3N[C@@H]4CC[C@H]3C4)c(F)c2)c1 [Example 242] |
| 1.53 h | 2 µM | 0.0037 µM |  | N#C[C@H](Cc1ccc(-c2cccc(C(N)=O)c2)cc1F)NC(=O)[C@H]1N[C@@H]2CC[C@H]1C2 [Example 244] |
| > 2.17 h | 1.2 µM | 0.0059 µM |  | CN1CCN(C(=O)c2cccc(-c3ccc(C[C@@H](C#N)NC(=O)[C@H]4N[C@@H]5CC[C@H]4C5)c(F)c3)c2)CC1 [Example 245] |
| > 2.17 h | 4.5 µM | 0.0084 µM |  | CN1CCCN(c2ccc(C[C@@H](C#N)NC(=O)[C@H]3N[C@@H]4CC[C@H]3C4)c(F)c2)CC1 [Example 247] |
| > 2.17 h | 3.6 µM | 0.0063 µM |  | N#C[C@H](Cc1ccc(N2CCN3CCOC[C@@H]3C2)cc1F)NC(=O)[C@H]1N[C@@H]2CC[C@H]1C2 [Example 249] |
| > 2.17 h | 3.1 µM | 0.0042 µM |  | N#C[C@H](Cc1ccc(N2CCN3CCOC[C@H]3C2)cc1F)NC(=O)[C@H]1N[C@@H]2CC[C@H]1C2 [Example 250] |
|  | 3.3 µM | 0.0038 µM | 2.17 h | CS(=O)(=O)c1ccc(-c2ccc(C[C@@H](C#N)NC(=O)[C@H]3N[C@@H]4CC[C@H]3C4)c(F)c2)cc1OCC(F)F [Example 252] |
| > 2.17 h | 5.7 µM | 0.011 µM |  | CNc1nc2cc(-c3ccc(C[C@@H](C#N)NC(=O)[C@H]4N[C@@H]5CC[C@H]4C5)c(F)c3)ccc2n1C [Example 253] |
| > 2.17 h | 4.5 µM | 0.002 µM |  | Cn1cc(-c2ccc(C[C@@H](C#N)NC(=O)[C@H]3N[C@@H]4CC[C@H]3C4)c(F)c2)ccc1=O [Example 254] |
| > 2.17 h | 3.7 µM | 0.006 µM |  | CS(C)(=O)=Nc1cccc(-c2ccc(C[C@@H](C#N)NC(=O)[C@H]3N[C@@H]4CC[C@H]3C4)c(F)c2)c1 [Example 259] |
| > 2.17 h | 3.9 µM | 0.0035 µM |  | N#C[C@H](Cc1ccc(-c2cnn(C[C@H]3CCCO3)c2)cc1F)NC(=O)[C@H]1N[C@@H]2CC[C@H]1C2 [Example 260] |
| > 2.17 h | 3.8 µM | 0.0042 µM |  | N#C[C@H](Cc1ccc(-c2cnn(C[C@@H]3CCCO3)c2)cc1F)NC(=O)[C@H]1N[C@@H]2CC[C@H]1C2 [Example 261] |
| > 2 h | 2.8 µM | 0.0064 µM |  | N#C[C@H](Cc1ccc(-c2cnn(C[C@@H]3CCOC3)c2)cc1F)NC(=O)[C@H]1N[C@@H]2CC[C@H]1C2 [Example 262] |
| > 2.17 h | 2.1 µM | 0.0118 µM |  | CS(=O)(=NC#N)c1ccc(-c2ccc(C[C@@H](C#N)NC(=O)[C@H]3N[C@@H]4CC[C@H]3C4)c(F)c2)cc1 (stereo partly drawn) [Example 263] |
| > 2.17 h | 4.7 µM | 0.0105 µM |  | CC(C)N1CCCN(c2ccc(C[C@@H](C#N)NC(=O)[C@H]3N[C@@H]4CC[C@H]3C4)c(F)c2)CC1 [Example 267] |

| half-life at 1 μM [1] | IC50 [2] | IC50 [3] | In vitro stability in human liver microsome incubations t½ [1] | Structure (SMILES) |
| --- | --- | --- | --- | --- |
| > 2.17 h | 1.7 µM | 0.0094 µM |  | CO[C@@H]1C[C@@H]2CN(c3ccc(C[C@@H](C#N)NC(=O)[C@H]4N[C@@H]5CC[C@H]4C5)c(F)c3)CCN2C1 [Example 269] |
| > 2.17 h | 6.1 µM | 0.0063 µM |  | N#C[C@H](Cc1ccc(N2CCN3CCC[C@H]3C2)cc1F)NC(=O)[C@H]1N[C@@H]2CC[C@H]1C2 [Example 270] |
| > 2.08 h | 3.5 µM | 0.0065 µM |  | C[S+]([O-])c1ccc(-c2ccc(C[C@@H](C#N)NC(=O)[C@H]3N[C@@H]4CC[C@H]3C4)c(F)c2)cc1 (stereo partly drawn) [Example 274] |
|  | 5.5 µM | 0.0141 µM | 2.17 h | CS(=O)(=O)c1cc(OCC(F)(F)F)cc(-c2ccc(C[C@@H](C#N)NC(=O)[C@H]3N[C@@H]4CC[C@H]3C4)c(F)c2)c1 [Example 276] |
| > 2.17 h | 1.9 µM | 0.0033 µM |  | N#C[C@H](Cc1ccc(C2=CCN3CCOCC3C2)cc1F)NC(=O)[C@H]1N[C@@H]2CC[C@H]1C2 (stereo partly drawn) [Example 281] |
| > 2.17 h | 2.2 µM | 0.0023 µM |  | N#C[C@H](Cc1ccc(-c2ccc(C(=O)N3CCOCC3)o2)cc1F)NC(=O)[C@H]1N[C@@H]2CC[C@H]1C2 [Example 288] |
| > 2.17 h | 2.7 µM | 0.0013 µM |  | N#CC(Cc1cc2c(=O)[nH]c3cc(F)ccc3c2cc1F)NC(=O)[C@H]1N[C@@H]2CC[C@H]1C2 (stereo partly drawn) [Example 293] |
| > 2.17 h | 2.2 µM | 0.0016 µM |  | N#CC(Cc1cc2c(=O)[nH]c3ccccc3c2cc1F)NC(=O)[C@H]1N[C@@H]2CC[C@H]1C2 (stereo partly drawn) [Example 294] |
| > 2.17 h | 4.7 µM | 0.0021 µM |  | N#CC(Cc1cc2c(=O)[nH]c3ccc(F)cc3c2cc1F)NC(=O)[C@H]1N[C@@H]2CC[C@H]1C2 (stereo partly drawn) [Example 295] |
| > 2.17 h | > 30 µM | 0.0029 µM |  | N#CC(Cc1ccc2c(c1)c(=O)[nH]c1c(F)c(F)c(F)cc12)NC(=O)[C@H]1N[C@@H]2CC[C@H]1C2 (stereo partly drawn) [Example 296] |
| 1.75 h | 17.6 µM | 0.0032 µM |  | N#Cc1ccc2[nH]c(=O)c3cc(CC(C#N)NC(=O)[C@H]4N[C@@H]5CC[C@H]4C5)ccc3c2c1 (stereo partly drawn) [Example 298] |
| > 2.17 h | 23.1 µM | 0.0038 µM |  | N#CC(Cc1ccc2c(c1)c(=O)[nH]c1c(F)c(F)ccc12)NC(=O)[C@H]1N[C@@H]2CC[C@H]1C2 (stereo partly drawn) [Example 300] |
| 1.67 h | 19.5 µM | 0.0045 µM |  | N#C[C@H](Cc1ccc2c(c1)c(=O)[nH]c1cc(C(F)(F)F)ccc12)NC(=O)[C@H]1N[C@@H]2CC[C@H]1C2 [Example 301] |
| > 2.17 h | 22.2 µM | 0.005 µM |  | Cn1c(=O)c2cc(CC(C#N)NC(=O)[C@H]3N[C@@H]4CC[C@H]3C4)ccc2c2ccc(C#N)cc21 (stereo partly drawn) [Example 303] |
| 1.53 h | > 30 µM | 0.0135 µM |  | N#CC(Cc1ccc2c(cnc3cc(F)ccc32)c1)NC(=O)[C@H]1N[C@@H]2CC[C@H]1C2 (stereo partly drawn) [Example 315, (1S,2S,4R)—N-[1-cyano-2-(3-fluorophenanthridin-8-yl)ethyl]-3-azabicyclo[2.2.1]heptane-2-carboxamide] |
| > 2.17 h | 4.5 µM | 0.0175 µM |  | CN1CCC(Oc2ccc(C[C@@H](C#N)NC(=O)[C@H]3N[C@@H]4CC[C@H]3C4)c(F)c2)CC1 [Example 319, (1S,2S,4R)—N-[(1S)-1-cyano-2-[2-fluoro-4-[(1-methyl-4-piperidyl)oxy]phenyl]ethyl]-3-azabicyclo[2.2.1]heptane-2-carboxamide] |
| > 2.17 h | 1.1 µM | 0.0008 µM |  | N#C[C@H](Cc1cc2c(=O)[nH]c3ccccc3c2cc1F)NC(=O)[C@H]1N[C@@H]2CC[C@H]1C2 [Example 322] |
| > 2.17 h | 0.9 µM | 0.0008 µM |  | N#C[C@H](Cc1cc2c(=O)[nH]c3cc(F)ccc3c2cc1F)NC(=O)[C@H]1N[C@@H]2CC[C@H]1C2 [Example 323] |
| > 2.17 h | 0.8 µM | 0.001 µM |  | N#C[C@H](Cc1cc2c(=O)[nH]c3c(F)c(F)ccc3c2cc1F)NC(=O)[C@H]1N[C@@H]2CC[C@H]1C2 [Example 324] |
| > 2.17 h | 2.3 µM | 0.0013 µM |  | N#Cc1cc(F)c2[nH]c(=O)c3cc(C[C@@H](C#N)NC(=O)[C@H]4N[C@@H]5CC[C@H]4C5)c(F)cc3c2c1 [Example 325] |
| > 2.17 h | 6.6 µM | 0.0078 µM |  | CN1CC2(C1)CN(c1ccc(C[C@@H](C#N)NC(=O)[C@H]3N[C@@H]4CC[C@H]3C4)c(F)c1)C2 [Example 330] |

| Structure (SMILES) | half-life at 1 μM [1] | IC50 [2] | IC50 [3] | In vitro stability in human liver microsome incubations t½ [1] |
| --- | --- | --- | --- | --- |
| N#C[C@H](Cc1ccc(-c2cc(C(=O)N3CCn4nccc4C3)co2)cc1F)NC(=O)[C@H]1N[C@@H]2CC[C@H]1C2 [Example 240] | 1.83 h | 9.4 µM | 0.0061 µM |  |
